Legend:
[1] = tested on: hepatotoxicity produced by galactosamine; test: Hepatotoxicity produced by galactosamine (not dependent on CYP 450 bioactivation), LDH and GPT leakage; type: in vivo; details: galactosamine alone
[2] = tested on: hepatotoxicity produced by paracetamol; test: Hepatotoxicity produced by paracetamol (CYP 450 bioactivation), LDH and GPT release in serum; type: in vivo; details: paracetamol alone
CYP 450 1A1 = target: T1, CYP 450 1A1 (Homo sapiens, UniProt P04798); details: cited from earlier work
T1 sequence (P04798 1-512): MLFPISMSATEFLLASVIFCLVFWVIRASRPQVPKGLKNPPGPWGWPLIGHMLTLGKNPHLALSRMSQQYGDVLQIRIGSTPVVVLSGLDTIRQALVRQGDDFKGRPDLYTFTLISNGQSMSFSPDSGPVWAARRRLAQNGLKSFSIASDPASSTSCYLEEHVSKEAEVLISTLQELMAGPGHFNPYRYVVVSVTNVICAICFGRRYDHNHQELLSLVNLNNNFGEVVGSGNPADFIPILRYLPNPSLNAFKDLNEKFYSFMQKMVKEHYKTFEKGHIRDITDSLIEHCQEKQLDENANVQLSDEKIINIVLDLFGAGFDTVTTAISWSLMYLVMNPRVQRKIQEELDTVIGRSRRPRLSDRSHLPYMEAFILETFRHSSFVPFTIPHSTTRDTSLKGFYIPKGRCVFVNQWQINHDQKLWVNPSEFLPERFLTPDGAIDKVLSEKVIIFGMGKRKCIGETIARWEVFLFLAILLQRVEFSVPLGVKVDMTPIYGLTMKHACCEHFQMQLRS

N[C@H]1C(O)O[C@H](CO)[C@H](O)[C@@H]1O (stereo partly drawn) [galactosamine]
Toxicity [1]: 93%

CC(=O)Nc1ccc(O)cc1 [paracetamol]
Toxicity [2]: 93%

O=C(/C=C/C=C/c1ccc2c(c1)OCO2)N1CCCCC1 [piperine]
inhibition of CYP 450 1A1 (in words) (CYP 450 1A1): specific inhibitor of CYP 450 1A1

Reference: US7001619B2, “Hepatocurative effect of emblica officinalis against CYP 450 bio-activation hepatotoxicity of drugs” (Council of Scientific and Industrial Research, priority 2002, dated 2006)
